From patent US8063071B2 (GlaxoSmithKline, LLC, priority 2007, dated 2011)
Counter-ions that a name gives are not always drawn.

How the values were obtained:
[1] = test system: human monocyte stimulated cytokine production (TNF-α); experiment: Monocyte assay (LPS-stimulated TNF-α production); format: cell-based; details: for IC50: 24 h, 200 ng/mL LPS, TNF-α by ELISA; for inhibition at 0.3 µM: read-out: inhibition at 300 nM in the monocyte assay
How it was run: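 TNF-α release was measured by ELISA after 24 hrs at 37 C. Cells were stimulated with 200 ng/mL E. coli LPS, with compound added 30 minutes beforehand (0.1% DMSO vehicle). Cells were Ficoll/MACS-isolated CD14+ human monocytes adhered at 1×10^6 cells/mL, and viability was checked by trypan blue.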

[2] = target: T1, Recombinant human IKKβ (residues 1-737) (Homo sapiens, UniProt O14920); experiment: IKK2 assay (TR-FRET); format: biochemical; details: ATP 1 μM final, read-out: pIC50 against IKK2 (converted)
T1 construct: Recombinant human IKKβ (residues 1-737); GST (C); made in house
T1 sequence (O14920 1-737): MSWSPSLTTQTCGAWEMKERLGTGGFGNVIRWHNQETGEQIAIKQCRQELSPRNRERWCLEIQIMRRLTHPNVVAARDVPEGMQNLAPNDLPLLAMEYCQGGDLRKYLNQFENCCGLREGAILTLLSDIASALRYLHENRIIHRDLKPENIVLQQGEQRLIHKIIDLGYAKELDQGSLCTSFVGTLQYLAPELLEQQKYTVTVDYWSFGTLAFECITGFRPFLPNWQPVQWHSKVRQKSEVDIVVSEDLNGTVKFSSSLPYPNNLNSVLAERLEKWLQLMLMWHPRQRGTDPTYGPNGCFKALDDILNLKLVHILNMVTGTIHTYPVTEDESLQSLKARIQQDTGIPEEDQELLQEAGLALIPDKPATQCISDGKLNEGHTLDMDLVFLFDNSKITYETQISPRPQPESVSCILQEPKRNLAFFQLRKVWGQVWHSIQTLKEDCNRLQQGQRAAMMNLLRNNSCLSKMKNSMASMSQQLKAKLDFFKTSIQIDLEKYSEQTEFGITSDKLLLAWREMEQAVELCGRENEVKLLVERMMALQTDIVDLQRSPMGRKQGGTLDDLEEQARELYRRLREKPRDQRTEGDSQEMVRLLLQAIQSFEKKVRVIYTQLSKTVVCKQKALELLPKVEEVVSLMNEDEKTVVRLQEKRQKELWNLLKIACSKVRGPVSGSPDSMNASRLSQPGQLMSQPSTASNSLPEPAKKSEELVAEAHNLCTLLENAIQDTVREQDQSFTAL
How it was run: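 TR-FRET readout (665 nm over 620 nm Eu reference) of GST-IB Ser32/36 phosphorylation after 60 min detection. Reaction: 1 μM ATP, 25 nM substrate, 0.5-5 nM GST-fused IKKβ 1-737 from baculovirus, pH 7.4 HEPES buffer, 1.7% DMSO, 15 min room temperature, EDTA-terminated.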

| Structure (SMILES) | IC50 [1] [µM] | IC50 [2] [µM] | inhibition at 0.3 µM [1] [%] |
| --- | --- | --- | --- |
| CCS(=O)(=O)N1CCC(c2c[nH]c3c(C(N)=O)cc(-c4csc(CN(C)CC5CC5)c4)cc23)CC1 [Example 409, 5-(5-{[(cyclopropylmethyl)(methyl)amino]methyl}-3-thienyl)-3-[1-(ethylsulfonyl)-4-piperidinyl]-1H-indole-7-carboxamide trifluoroacetate] | ≤ 1.5 | ≤ 10 | – |
| CCC(C)(C)N(C)Cc1cc(-c2cc(C(N)=O)c3[nH]cc(C4CCN(S(=O)(=O)CC)CC4)c3c2)cs1 [Example 412, 5-{5-[(1,1-dimethylpropyl)(methyl)amino]methyl}-3-thienyl)-3-[1-(ethylsulfonyl)-4-piperidinyl]-1H-indole-7-carboxamide trifluoroacetate] | ≤ 1.5 | ≤ 10 | – |
| CCS(=O)(=O)N1CCC(c2c[nH]c3c(C(N)=O)cc(-c4csc(C(C)N(C)CCOC)c4)cc23)CC1 (stereo not shown) [Example 416, 3-[1-(ethylsulfonyl)-4-piperidinyl]-5-[5-(1-{methyl[2-(methyloxy)ethyl]amino}ethyl)-3-thienyl]-1H-indole-7-carboxamide trifluoroacetate] | ≤ 1.5 | ≤ 10 | – |
| CCCN(C)C(C)c1cc(-c2cc(C(N)=O)c3[nH]cc(C4CCN(S(=O)(=O)CC)CC4)c3c2)cs1 (stereo not shown) [Example 417, 3-[1-(ethylsulfonyl)-4-piperidinyl]-5-(5-{1-[methyl(propyl)amino]ethyl}-3-thienyl)-1H-indole-7-carboxamide trifluoroacetate] | ≤ 1.5 | ≤ 10 | – |
| CCS(=O)(=O)N1CCC(c2c[nH]c3c(C(N)=O)cc(-c4ccc5c(c4)CNC5)cc23)CC1 [Example 418, 5-(2,3-dihydro-1H-isoindol-5-yl)-3-[1-(ethylsulfonyl)-4-piperidinyl]-1H-indole-7-carboxamide] | ≤ 1.5 | ≤ 10 | – |
| CCN1Cc2ccc(-c3cc(C(N)=O)c4[nH]cc(C5CCN(S(=O)(=O)CC)CC5)c4c3)cc2C1 [Example 419, 5-(2-ethyl-2,3-dihydro-1H-isoindol-5-yl)-3-[1-(ethylsulfonyl)-4-piperidinyl]-1H-indole-7-carboxamide] | ≤ 1.5 | ≤ 10 | – |
| CC(C)S(=O)(=O)N1CCC(c2c[nH]c3c(C(N)=O)cc(-c4csc(CN5CCC[C@@H]5C(N)=O)c4)cc23)CC1 [Example 429, 5-(5-{[(2R)-2-(aminocarbonyl)-1-pyrrolidinyl]methyl}-3-thienyl)-3-[1-[(1-methylethyl)sulfonyl]-4-piperidinyl]-1H-indole-7-carboxamide] | – | ≤ 10 | 0 to 60 |
| CCSCCN(C)Cc1cc(-c2cc(C(N)=O)c3[nH]cc(C4CCN(S(=O)(=O)CC)CC4)c3c2)cs1 [Example 430, 3-[1-(ethylsulfonyl)-4-piperidinyl]-5-(5-{[[2-(ethylthio)ethyl](methyl)amino]methyl}-3-thienyl)-1H-indole-7-carboxamide] | – | ≤ 10 | 0 to 60 |
| CCS(=O)(=O)N1CCC(c2c[nH]c3c(C(N)=O)cc(-c4csc(CN(C)CCSCCO)c4)cc23)CC1 [Example 431, 3-[1-(ethylsulfonyl)-4-piperidinyl]-5-(5-{[{2-[(2-hydroxyethyl)thio]ethyl}(methyl)amino]methyl}-3-thienyl)-1H-indole-7-carboxamide] | – | ≤ 10 | 0 to 60 |
| CCS(=O)(=O)N1CCC(c2c[nH]c3c(C(N)=O)cc(-c4csc(CN(C)C(CO)CO)c4)cc23)CC1 [Example 432, 3-[1-(ethylsulfonyl)-4-piperidinyl]-5-(5-{[[2-hydroxy-1-(hydroxymethyl)ethyl](methyl)amino]methyl}-3-thienyl)-1H-indole-7-carboxamide] | ≤ 1.5 | ≤ 10 | – |
| CCOC(=O)N(C)Cc1cc(-c2cc(C(N)=O)c3[nH]cc(C4CCN(S(=O)(=O)CC)CC4)c3c2)cs1 [Example 433, ethyl[(4-{7-(aminocarbonyl)-3-[1-(ethylsulfonyl)-4-piperidinyl]-1H-indol-5-yl}-2-thienyl)methyl]methylcarbamate] | – | ≤ 10 | 0 to 60 |
| CCOC(=O)CN(C)Cc1cc(-c2cc(C(N)=O)c3[nH]cc(C4CCN(S(=O)(=O)CC)CC4)c3c2)cs1 [Example 434, ethyl N-[(4-[7-(aminocarbonyl)-3-[1-(ethylsulfonyl)-4-piperidinyl]-1H-indol-5-yl]-2-thienyl)methyl]-N-methylglycinate] | ≤ 1.5 | ≤ 10 | – |
| CCS(=O)(=O)N1CCC(c2c[nH]c3c(C(N)=O)cc(-c4csc(CN(C)C5CCS(=O)(=O)C5)c4)cc23)CC1 (stereo not shown) [Example 436, 5-(5-{[(1,1-dioxidotetrahydro-3-thienyl)(methyl)amino]methyl}-3-thienyl)-3-[1-(ethylsulfonyl)-4-piperidinyl]-1H-indole-7-carboxamide trifluoroacetate] | – | ≤ 10 | 0 to 60 |

Now from value to compound, other results behind:

| IC50 [1] [µM] | IC50 [2] [µM] | Structure (SMILES) | inhibition at 0.3 µM [1] [%] |
| --- | --- | --- | --- |
| ≤ 1.5 | ≤ 10 | C=CCN(C)Cc1cc(-c2cc(C(N)=O)c3[nH]cc(C4CCN(S(=O)(=O)CC)CC4)c3c2)cs1 [Example 399, 3-[1-(ethylsulfonyl)-4-piperidinyl]-5-(5-{[methyl(2-propen-1-yl)amino]methyl}-3-thienyl)-1H-indole-7-carboxamide] | – |
| ≤ 1.5 | ≤ 10 | CCS(=O)(=O)N1CCC(c2c[nH]c3c(C(N)=O)cc(-c4csc(CN(C)Cc5c(C)n[nH]c5C)c4)cc23)CC1 [Example 400, 5-(5-{[[(3,5-dimethyl-1H-pyrazol-4-yl)methyl](methyl)amino]methyl}-3-thienyl)-3-[1-(ethylsulfonyl)-4-piperidinyl]-1H-indole-7-carboxamide] | – |
| ≤ 1.5 | ≤ 10 | CCS(=O)(=O)N1CCC(c2c[nH]c3c(C(N)=O)cc(-c4csc(CN(C)CC#N)c4)cc23)CC1 [Example 401, 5-(5-{[(cyanomethyl)(methyl)amino]methyl}-3-thienyl)-3-[1-(ethylsulfonyl)-4-piperidinyl]-1H-indole-7-carboxamide] | – |
| ≤ 1.5 | ≤ 10 | CCC(C)N(C)Cc1cc(-c2cc(C(N)=O)c3[nH]cc(C4CCN(S(=O)(=O)CC)CC4)c3c2)cs1 (stereo not shown) [Example 402, 3-[1-(ethylsulfonyl)-4-piperidinyl]-5-(5-{[methyl(1-methylpropyl)amino]methyl}-3-thienyl)-1H-indole-7-carboxamide] | – |
| ≤ 1.5 | ≤ 10 | CCS(=O)(=O)N1CCC(c2c[nH]c3c(C(N)=O)cc(-c4csc(CN(C)C5CCC5)c4)cc23)CC1 [Example 404, 5-(5-{[cyclobutyl(methyl)amino]methyl}-3-thienyl)-3-[1-(ethylsulfonyl)-4-piperidinyl]-1H-indole-7-carboxamide trifluoroacetate] | – |
| ≤ 1.5 | ≤ 10 | CCS(=O)(=O)N1CCC(c2c[nH]c3c(C(N)=O)cc(-c4csc(CN(C)C(C)(C)C)c4)cc23)CC1 [Example 406, 5-(5-{[(1,1-dimethylethyl)(methyl)amino]methyl}-3-thienyl)-3-[1-(ethylsulfonyl)-4-piperidinyl]-1H-indole-7-carboxamide trifluoroacetate] | – |
| ≤ 1.5 | ≤ 10 | CCS(=O)(=O)N1CCC(c2c[nH]c3c(C(N)=O)cc(-c4csc(CN(C)[C@@H](C)CO)c4)cc23)CC1 [Example 408, 3-[1-(ethylsulfonyl)-4-piperidinyl]-5-(5-{[[(1S)-2-hydroxy-1-methylethyl](methyl)amino]methyl}-3-thienyl)-1H-indole-7-carboxamide trifluoroacetate] | – |
